This note sets out measurements from patent US8293732B2, “Antibacterial quinoline derivatives” (Janssen Pharmaceutica N.V., priority 2006, dated 2012).

The test system of data set [1] is Staphylococcus aureus (ATCC29213). As to the kind of experiment: In-vitro anti-bacterial microtitre plate assay, IC90 determination (STA 1 B29213). The conditions noted are these: 90% inhibitory concentration for bacterial growth, 37° C., resazurin fluorescence; for IC90 values STA 1 B29213: 24 hours; for IC90: Staphylococcus aureus, ATCC29213, 24 h. The format is cell-based. The procedure: (§1) The bacteria used in this study were grown overnight in flasks containing 100 ml Mueller-Hinton Broth (Becton Dickinson—cat. no. 275730) in sterile de-ionized water, with shaking, at 37° C. Stocks (0.5 ml/tube) were stored at −70° C. until use. Bacteria titrations were performed in microtiter plates to detect the TCID50, in which the TCID50 represents the dilution that gives rise to bacterial growth in 50% of inoculated cultures.
(§2) In general, an inoculum level of approximately 100 TCID50 was used for susceptibility testing.
(§3) Flat-bottom, sterile 96-well plastic microtiter plates were filled with 180 μl of sterile deionized water, supplemented with 0.25% BSA. Subsequently, stock solutions (7.8× final test concentration) of compounds were added in 45 μl volumes in column 2. Serial five-fold dilutions (45 μl in 180 μl) were made directly in the microtiter plates from column 2 to reach column 11. Untreated control samples with (column 1) and without (column 12) inoculum were included in each microtiter plate. Depending on the bacteria type, approximately 10 to 60 CFU per well of bacteria inoculum (100 TCID50), in a volume of 100 μl in 2.8× Mueller-Hinton broth medium, was added to the rows A to H, except column 12. The same volume of broth medium without inoculum was added to column 12 in row A to H. The cultures were incubated at 37° C. for 24 hours under a normal atmosphere (incubator with open air valve and continuous ventilation). At the end of incubation, one day after inoculation, the bacterial growth was quantitated fluorometrically. Therefore resazurin (0.6 mg/ml) was added in a volume of 20 μl to all wells 3 hours after inoculation, and the plates were re-incubated overnight. A change in colour from blue to pink indicated the growth of bacteria. The fluorescence was read in a computer-controlled fluorometer (Cytofluor Biosearch) at an excitation wavelength of 530 nm and an emission wavelength of 590 nm. The % growth inhibition achieved by the compounds was calculated according to standard methods.
(§4) STA 29213 means Staphylococcus aureus (ATCC29213); SPN 6305 means Streptococcus pneumoniae (ATCC6305); MSM 607 means M. Smegmatis (ATCC607); ATCC means […].
On the technique in general: Alamar Blue is a resazurin reagent that responds to reducing activity.

In data set [2] the test system is Streptococcus pneumoniae (ATCC6305). As to the kind of experiment: In-vitro anti-bacterial microtitre plate assay, IC90 determination (SPN 1 6305). The data set is classed as cell-based. To be noted: 90% inhibitory concentration for bacterial growth, 37° C., resazurin fluorescence; for IC90 values SPN 1 6305: 24 hours; for IC90: Streptococcus pneumoniae, ATCC6305, 24 h. The protocol:
as §1, §2, §3, §4

The subject of data set [3] is M. Smegmatis (ATCC607). As to the kind of experiment: In-vitro anti-bacterial activity against strain M. Smegmatis ATCC607. The format is cell-based. To be noted: 90% inhibitory concentration for bacterial growth, 37° C., Alamar Blue fluorescence; for IC90 values MSM 1 ATCC607: 48 hours. The protocol:
Flat-bottom, sterile 96-well plastic microtiter plates were filled with 180 μl of sterile deionized water, supplemented with 0.25% BSA. Subsequently, stock solutions (7.8× final test concentration) of compounds were added in 45 μl volumes to a series of duplicate wells in column 2 so as to allow evaluation of their effects on bacterial growth. Serial five-fold dilutions (45 μl in 180 μl) were made directly in the microtiter plates from column 2 to 11 using a customised robot system (Zymark Corp., Hopkinton, Mass.). Pipette tips were changed after every 3 dilutions to minimize pipetting errors with high hydrophobic compounds. Untreated control samples with (column 1) and without (column 12) inoculum were included in each microtiter plate. Approximately 250 CFU per well of bacteria inoculum, in a volume of 100 μl in 2.8× Mueller-Hinton broth medium, was added to the rows A to H, except column 12. The same volume of broth medium without inoculum was added to column 12 in row A to H. The cultures were incubated at 37° C. for 48 hours in a humidified 5% CO2 atmosphere (incubator with open air valve and continuous ventilation). At the end of incubation, two days after inoculation, the bacterial growth was quantitated fluorometrically. Therefore Alamar Blue (10×) was added to all wells in a volume of 20 μl and plates were incubated for another 2 hours at […]
The fluorescence was read in a computer-controlled fluorometer (Cytofluor, Biosearch) at an excitation wavelength of 530 nm and an emission wavelength of 590 nm (gain 30).
as §4

Values after ≈ are worked out from the molar mass of the structure shown.

The melting point is the temperature of the solid-liquid transition. Turning to `COc1nc2ccc(Br)cc2cc1C(c1ccccc1)C(O)(CCCCN(C)C)COc1ccc(C)cc1` (single isomer, unassigned) [Compound 6], the melting point amounted to 130 °C. Moreover, the “IC90 values STA 1 B29213” value in data set [1] was determined as 9.2 µg/mL (≈ 15.9 µM). Besides, in data set [2], the “IC90 values SPN 1 6305” value amounted to 5.2 µg/mL (≈ 9 µM). Besides, the “IC90 values MSM 1 ATCC607” value in data set [3] amounted to 1.8 µg/mL (≈ 3.12 µM).

Molecule `COc1nc2ccc(Br)cc2cc1C(c1ccc(Cl)cc1)C(O)(CCCCN1CCN(C)CC1)COc1ccccc1` (single isomer, unassigned) [Compound 22] showed a melting point of 158 °C. Further, the “IC90 values STA 1 B29213” value in data set [1] amounted to 32.7 µg/mL (≈ 50.1 µM). Further, the “IC90 values SPN 1 6305” value in data set [2] is 11.6 µg/mL (≈ 17.8 µM). The “IC90 values MSM 1 ATCC607” value in data set [3] was found to be 8.2 µg/mL (≈ 12.6 µM).

By IC90 is commonly meant the point of the concentration-response curve where the effect stands at 90%. As for `COc1nc2ccccc2cc1C(c1ccc(-c2cnn(C)c2)cc1)C(O)(CCCCN(C)C)c1ccc2ccccc2c1` (single isomer, unassigned) [Compound 10], the melting point was 190 °C. This molecule returned a 90% effect concentration (IC90) in data set [1] of 1.9 µg/mL (≈ 3.25 µM). Besides, the 90% effect level in data set [2] (IC90) was put at 1.9 µg/mL (≈ 3.25 µM). Also, the “IC90 values MSM 1 ATCC607” value in data set [3] turned out to be 0.4 µg/mL (≈ 0.684 µM).

`COc1nc2ccc(Br)cc2cc1C(c1ccccc1)C(O)(CCCCN1CCN(C)CC1)COc1ccccc1` (single isomer, unassigned) [Compound 20] came in with a melting point of 144 °C. Further, in data set [1], the “IC90 values STA 1 B29213” value worked out at 49.1 µg/mL (≈ 79.4 µM). Further, the “IC90 values SPN 1 6305” value in data set [2] amounted to 9.8 µg/mL (≈ 15.8 µM). Moreover, the “IC90 values MSM 1 ATCC607” value in data set [3] came out at 9.8 µg/mL (≈ 15.8 µM).

`COc1nc2ccccc2cc1C(c1cccc(-c2cnc3ccccc3c2)c1)C(O)(CCCCN(C)C)c1ccc2ccccc2c1` (single isomer, unassigned) [Compound 16] registered a melting point of 141 °C. The same molecule gave a 90% effect concentration (IC90) in data set [1] of 2 µg/mL (≈ 3.17 µM). Further, the IC90 in data set [2] was 2 µg/mL (≈ 3.17 µM). In data set [3] (Mycolicibacterium smegmatis, ATCC607, 48 h, read-out: IC90 values MSM 1 ATCC607), the 90% effect concentration (IC90) was found to be 2 µg/mL (≈ 3.17 µM).

In turn, `COc1nc2ccc(Br)cc2cc1C(c1ccccc1)C(O)(CCCCN1CCN(C)CC1)COCc1ccccc1` (single isomer, unassigned) [Compound 28] registered a melting point of 122 °C. For the same molecule, in data set [1], the “IC90 values STA 1 B29213” value is 10.0 µg/mL (≈ 15.8 µM). In addition, the “IC90 values SPN 1 6305” value in data set [2] amounted to 12.6 µg/mL (≈ 19.9 µM). For the same molecule, the “IC90 values MSM 1 ATCC607” value in data set [3] worked out at 4.5 µg/mL (≈ 7.11 µM).
